Assays:
[1] = Measuring of viscosity of curable compound (cone plate type rotatory viscometer); format: physicochemical; conditions: cone rotor, 50 rpm
Protocol: Viscosity of the thus-obtained curable compound was measured by a cone plate type rotatory viscometer (VISCOMETER TVE-22L, manufactured by TOKI SANGYO CO., LTD.) using a cone rotor (1°34′×R24) at a number of rotation of 50 rpm and at 25 degrees C. of hemathermal circulating water.

[2] = test system: female rats of Slc: Wistar/ST series; assay: Limiting test based on Acute Oral Toxicity Test (OECD TG423, Acute Toxic Class Method); format: in vivo, rat; conditions: single gavage dose 2,000 mg/kg weight of body, six animals per testing article, observed 14 days
Source text: The curable compounds of Example 1a, Example 4a, Comparative Example 1a, and Comparative Example 2a were subject to the limiting test based on Acute Oral Toxicity Test (OECD TG423) according to Acute Toxic Class Method in the following manner to evaluate safeness.
Regarding the curable compound of the present disclosure as test article, 24 female rats of Slc: Wistar/ST series of 5 week old as animal used were ordered for Japan SLC, Inc. The animals were habituated for one week. No abnormalities were found in all of the rats (animals used) during the habituation period.
Based on the body weights measured two days before the initiation of administration, they were categorized into four groups (six rats per group) by the body weight stratified random sampling method so that the body weight of each individual was within ±20% of the average body weight of all of the individuals. The individuals not classified into the groups were excluded from the test.
First group, Example 1a: Testing article: curable compound represented by the chemical structure a1-1, Amount of administration: 2,000 mg/kg weight of body, number of animals used: six
Second group, Example 4a: Testing article: curable compound represented by the chemical structure d1-1, Amount of administration: 2,000 mg/kg weight of body, number of animals used: six
Third group, Comparative Example 1a: Testing article: N,N-diethylacrylamide represented by the chemical structure (1), Amount of administration: 2,000 mg/kg weight of body, number of animals used: six
Fourth group, Comparative Example 2a: Testing article: Acrylamide represented by the chemical structure (2), Amount of administration: 2,000 mg/kg weight of body, number of animals used: six
100 mg of the testing article was weighed using a measuring flask and water was added as solvent to make 1 mL in total. […] The preparation liquid of the testing article was prepared on the day of administration.
The animals used were on fasting except for water for 17 hours before administration. The mass was measured after the fasting and the testing article was provided by gavage administration one time using a gastric tube. After the administration, no food was given for another three to four hours.
The administration was on one dose of 2,000 mg/kg weight of body and six animals were used per testing article.
Note that the observation was counted from the day of the initiation of administration being regarded as Day 1.
The number of animals who died during the test period was counted.

| SMILES | Viscosity (25 degrees C., mPA · s) [1] [mPA · s] | Safeness (number of dead) [2] |
| --- | --- | --- |
| C=CC(=O)N(C)C(C)C(=O)OC(C)C (stereo not shown) [Example 15a] | 6.8 | – |
| C=CC(=O)N(CCCCCC)CC(=O)OCCCC [Example 12a] | 23.7 | – |
| C=CC(=O)N(CC)CC [Comparative Example 1a, N,N-diethylacrylamide, reference compound] | 2.6 | 6 |
| C=CC(=O)N(C)CC(=O)OCCCC [Example 6a] | 11.9 | – |
| C=CC(=O)N(CC(=O)OCC)CC(=O)OCC [Comparative Example 3a, reference compound] | 69.2 | – |
| C=CC(=O)N(CCCCCC)CC(=O)OC [Example 11a] | 29.9 | – |
| C=CC(=O)N(CCC)CC(=O)OCC [Example 8a] | 20.4 | – |
| C=CC(=O)N(CC(=O)OC)C(C)C [Example 9a] | 25.4 | – |
| C=CC(=O)N(C)CC(=O)OC [Example 4a] | 12.3 | 0 |
| C=CC(=O)N(C)CCOC [Comparative Example 2a, reference compound] | 2.4 | 6 |
| C=CC(=O)N(C)CC(=O)OC(C)C [Example 7a] | 14.1 | – |
| C=CC(=O)N(CCOC(C)=O)C(C)(C)C [Example 3a] | 16.4 | – |
| C=CC(=O)N(C)C(C)C(=O)OCC (stereo not shown) [Example 14a] | 6.9 | – |
| C=CC(=O)N(CC(=O)OC(C)C)C(C)C [Example 10a] | 22.1 | – |
| C=CC(=O)N(C)CCOC(C)=O [Example 1a] | 8.4 | 3 |
| C=CC(=O)N(C)CC(=O)OCC [Example 5a] | 11.4 | – |
| C=CC(=O)N(C)C(C)C(=O)OC (stereo not shown) [Example 13a] | 8.9 | – |
| C=CC(=O)N(C)CCOC(=O)C(C)C [Example 2a] | 9.5 | – |
